In US12509454B2, “Thiadiazolyl derivatives” (IDEAYA Biosciences, Inc., priority 2019, dated 2025):

Molecular target: Pol theta (1-899) (Homo sapiens (Human), UniProt O75417)
Assay: Pol theta ATPase activity, NADH oxidation-coupled enzymatic assay
Format: biochemical
Details: Pol theta (1-899) 10 nM, ATP, dT50 ssDNA, absorbance 340 nm, 10-point dilution series; read-out: ATPase NADH coupling:Standard Screening:hPolQ IC50
Method: The ability of the compounds of Formula (I) to inhibit ATPase activity of Pol theta (1-899) was determined using the assay described below.
Pol Theta ATPase activity was determined by measuring the rate of ATP turn over in a NADH oxidation-coupled enzymatic assay. 10-point dilution series of compounds were used in a 384 well format for the inhibition assays. Pol theta (1-899) (10 nM) in assay buffer (20 mM Tris HCl (pH 7.80), 80 mM KCl, 10 mM MgCl2, 1 mM DTT, 0.01% BSA, 0.01% Tween, 5% glycerol) was transferred to the test wells (20 μL), except the low control wells (20 μL of assay buffer was added to the low control wells). The plate was then incubated at room temperature for 15 min. An equal volume (20 μL) of 100 μM ATP, 300 nM dT50 (single-stranded DNA (ssDNA) containing 50 thymine bases), 300 μM NADH, 6 mM PEP, 10 U/mL lactate dehydrogenase and 20 U/mL pyruvate kinase in assay buffer was added to all the test wells. The plate was then centrifuged at 1000 rpm for 1 min. The reaction was monitored for 30 min by measuring absorbance (λ=340 nm) in a Tecan Spark multimode plate reader every minute. The high control (DMSO with enzyme) with low absorbance intensity represents no inhibition of ATPase reaction while the low control (DMSO with buffer) with high absorbance intensity represents full inhibition of ATPase activity. Slope of the reaction progress curves were used to calculate the rate of ATP hydrolysis. The rates were used to determine the percent inhibition using a four-parameter inhibition model to generate IC50, Hill slope and max inhibition.

Pol theta (1-899), sequence (O75417 1-899): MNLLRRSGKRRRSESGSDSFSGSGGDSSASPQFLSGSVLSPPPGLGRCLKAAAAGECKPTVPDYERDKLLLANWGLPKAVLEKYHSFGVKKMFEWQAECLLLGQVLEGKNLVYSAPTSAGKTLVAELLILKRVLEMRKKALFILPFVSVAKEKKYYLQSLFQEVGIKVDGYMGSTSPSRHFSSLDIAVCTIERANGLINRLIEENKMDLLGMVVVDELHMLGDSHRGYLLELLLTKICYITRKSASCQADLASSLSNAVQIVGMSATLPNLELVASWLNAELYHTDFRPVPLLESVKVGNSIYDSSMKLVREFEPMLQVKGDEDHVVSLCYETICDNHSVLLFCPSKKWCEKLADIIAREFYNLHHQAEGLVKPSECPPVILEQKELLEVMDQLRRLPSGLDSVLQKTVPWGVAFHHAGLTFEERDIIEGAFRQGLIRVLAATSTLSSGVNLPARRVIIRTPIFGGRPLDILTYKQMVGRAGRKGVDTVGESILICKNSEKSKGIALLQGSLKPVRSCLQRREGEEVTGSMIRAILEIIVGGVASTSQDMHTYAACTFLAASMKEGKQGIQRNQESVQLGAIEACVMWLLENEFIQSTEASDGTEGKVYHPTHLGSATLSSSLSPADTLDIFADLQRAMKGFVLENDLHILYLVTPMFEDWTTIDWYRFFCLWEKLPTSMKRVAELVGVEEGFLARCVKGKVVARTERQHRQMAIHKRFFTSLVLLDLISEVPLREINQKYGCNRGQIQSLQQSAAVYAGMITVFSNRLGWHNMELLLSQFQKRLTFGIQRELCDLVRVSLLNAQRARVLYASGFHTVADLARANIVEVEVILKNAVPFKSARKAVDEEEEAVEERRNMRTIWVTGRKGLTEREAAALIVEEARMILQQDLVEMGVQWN

Row | IC50 [nM] | Structure (SMILES)
1 | 200 to 500 | CC1C(=O)NCCN1c1ncccc1C(=O)Nc1nnc(OCc2ccc(Cl)cc2)s1 (racemic) [Example 52, (R) N-(5-((4-chlorobenzyl)oxy)-1,3,4-thiadiazol-2-yl)-2-(2-methyl-3-oxopiperazin-1-yl)nicotinamide and (S) N-(5-((4-chlorobenzyl)oxy)-1,3,4-thiadiazol-2-yl)-2-(2-methyl-3-oxopiperazin-1-yl)nicotinamide]
2 | 1000 to 10000 | O=C(Nc1nnc(OCc2ccc(-c3ncco3)cc2)s1)c1cccnc1N1CCOCC1 [Example 65, 2-morpholino-N-(5-((4-(oxazol-2-yl)benzyl)oxy)-1,3,4-thiadiazol-2-yl)nicotinamide]
3 | ≤ 200 | O=C(Nc1nnc(OCc2ccc(Cl)cc2)s1)c1ccncc1-c1cccc2c1OC(F)(F)O2 [Example 121, N-(5-((4-chlorobenzyl)oxy)-1,3,4-thiadiazol-2-yl)-3-(2,2-difluorobenzo[d][1,3]dioxol-4-yl)isonicotinamide]
4 | ≤ 200 | O=C(Nc1nnc(OCc2ccc(Cl)cn2)s1)c1cncn1-c1ccccc1OC(F)F [Example 168, N-[5-[(5-chloropyridin-2-yl)methoxy]-1,3,4-thiadiazol-2-yl]-3-[2-(difluoromethoxy)phenyl]imidazole-4-carboxamide]
5 | ≤ 200 | O=C(Nc1nnc(OCc2ccc(Cl)cc2)s1)c1ccncc1-c1c(F)cccc1OC1COC1 [Example 143, N-(5-((4-chlorobenzyl)oxy)-1,3,4-thiadiazol-2-yl)-3-(2-fluoro-6-(oxetan-3-yloxy)phenyl)isonicotinamide]
6 | ≤ 200 | COc1ccccc1-c1cnccc1C(=O)Nc1nnc(OCc2cccc3[nH]cnc23)s1 [Example 145, N-[5-(1H-1,3-benzodiazol-4-ylmethoxy)-1,3,4-thiadiazol-2-yl]-3-(2-methoxyphenyl)pyridine-4-carboxamide]
7 | ≤ 200 | COc1cc(F)ccc1-c1ccncc1C(=O)Nc1nnc(OCc2ccc(Cl)cc2)s1 [Example 155, N-[5-[(4-chlorophenyl)methoxy]-1,3,4-thiadiazol-2-yl]-4-(4-fluoro-2-methoxyphenyl)pyridine-3-carboxamide]
8 | ≤ 200 | O=C(Nc1nnc(OCc2ccc(Cl)cc2)s1)c1cnccc1-c1ccccc1OC1CC1 [Example 93, N-(5-((4-chlorobenzyl)oxy)-1,3,4-thiadiazol-2-yl)-4-(2-cyclopropoxyphenyl)nicotinamide]
9 | 500 to 1000 | COc1ccccc1-c1ccncc1C(=O)Nc1nnc(OCC2CC2)s1 [Example 90, N-(5-(cyclopropylmethoxy)-1,3,4-thiadiazol-2-yl)-4-(2-methoxyphenyl)nicotinamide]
10 | 200 to 500 | COc1ccccc1-c1cnc(C)cc1C(=O)Nc1nnc(OCc2ccc(Cl)cn2)s1 [Example 191, N-[5-[(5-chloropyridin-2-yl)methoxy]-1,3,4-thiadiazol-2-yl]-5-(2-methoxyphenyl)-2-methylpyridine-4-carboxamide]
11 | 1000 to 10000 | COc1cc(N2CCOCC2)c(C(=O)Nc2nnc(OCc3ccc(Cl)cn3)s2)cn1 [Example 36, N-(5-((5-chloropyridin-2-yl)methoxy)-1,3,4-thiadiazol-2-yl)-6-methoxy-4-morpholinonicotinamide]
12 | ≤ 200 | COc1ccccc1-c1cc(C)ncc1C(=O)Nc1nnc(OCc2ccc(Cl)cn2)s1 [Example 113, N-(5-((5-chloropyridin-2-yl)methoxy)-1,3,4-thiadiazol-2-yl)-4-(2-methoxyphenyl)-6-methylnicotinamide]
13 | 1000 to 10000 | O=C(Nc1nnc(OCc2ccc(Cl)cc2)s1)c1cccnc1-n1cnnn1 [Example 11, N-(5-((4-chlorobenzyl)oxy)-1,3,4-thiadiazol-2-yl)-2-(1H-tetrazol-1-yl)nicotinamide]
14 | 500 to 1000 | CNC(=O)c1cc(N2CCNC(=O)CC2)c(C(=O)Nc2nnc(OCc3ccc(Cl)cc3)s2)cn1 [Example 87, N^5-(5-((4-chlorobenzyl)oxy)-1,3,4-thiadiazol-2-yl)-N2-methyl-4-(5-oxo-1,4-diazepan-1-yl)pyridine-2,5-dicarboxamide]
15 | ≤ 200 | COc1ccccc1-c1cnccc1C(=O)Nc1nnc(OCc2ccc(C3CC3)nc2)s1 [Example 101, N-[5-[(6-cyclopropylpyridin-3-yl)methoxy]-1,3,4-thiadiazol-2-yl]-3-(2-methoxyphenyl)pyridine-4-carboxamide]
16 | ≤ 200 | COc1ccccc1-c1c(C(=O)Nc2nnc(OCc3ccc(Cl)cn3)s2)cnc(C)c1F [Example 215, N-(5-((5-chloropyridin-2-yl)methoxy)-1,3,4-thiadiazol-2-yl)-5-fluoro-4-(2-methoxyphenyl)-6-methylnicotinamide]

Row | IC50 [nM] | Structure (SMILES)
17 | ≤ 200 | COc1ccccc1-c1cc2cncn2cc1C(=O)Nc1nnc(OCc2ccc(Cl)cn2)s1 [Example 224, N-[5-[(5-chloropyridin-2-yl)methoxy]-1,3,4-thiadiazol-2-yl]-7-(2-methoxyphenyl)imidazo[1,5-a]pyridine-6-carboxamide]
18 | 200 to 500 | Cc1cn[nH]c1-c1cnccc1C(=O)Nc1nnc(OCc2ccc(Cl)cc2)s1 [Example 118, N-(5-((4-chlorobenzyl)oxy)-1,3,4-thiadiazol-2-yl)-3-(4-methyl-1H-pyrazol-5-yl)isonicotinamide]
19 | 1000 to 10000 | O=C(O)c1cc(N2CCOCC2)c(C(=O)Nc2nnc(OCc3ccc(Cl)cc3)s2)cn1 [Example 84, 5-((5-((4-chlorobenzyl)oxy)-1,3,4-thiadiazol-2-yl)carbamoyl)-4-morpholinopicolinic acid]
20 | ≤ 200 | COc1ccc(CO)cc1-c1cc(C)ncc1C(=O)Nc1nnc(OCc2ccc(Cl)cn2)s1 [Example 200, N-(5-((5-chloropyridin-2-yl)methoxy)-1,3,4-thiadiazol-2-yl)-4-(5-(hydroxymethyl)-2-methoxyphenyl)-6-methylnicotinamide]
21 | ≤ 200 | COc1ccccc1-c1cnccc1C(=O)Nc1nnc(OCc2ccc(Cl)c3c2cnn3C)s1 [Example 146, N-[5-[(7-chloro-1-methylindazol-4-yl)methoxy]-1,3,4-thiadiazol-2-yl]-3-(2-methoxyphenyl)pyridine-4-carboxamide]
22 | ≤ 200 | COc1ccccc1-c1cc(CCC#N)ncc1C(=O)Nc1nnc(OCc2ccc(Cl)cc2)s1 [Example 164, N-[5-[(4-chlorophenyl)methoxy]-1,3,4-thiadiazol-2-yl]-6-(2-cyanoethyl)-4-(2-methoxyphenyl)pyridine-3-carboxamide]
23 | ≤ 200 | Cc1cc(-c2ccccc2OC(F)F)c(C(=O)Nc2nnc(OCc3ccc(Cl)cc3)s2)cn1 [Example 114, N-[5-[(4-chlorophenyl)methoxy]-1,3,4-thiadiazol-2-yl]-4-[2-(difluoromethoxy)phenyl]-6-methylpyridine-3-carboxamide]
24 | ≤ 200 | COc1ccccc1-c1ccncc1C(=O)Nc1nnc(OCc2ccc(Br)cn2)s1 [Example 97, N-(5-((5-bromopyridin-2-yl)methoxy)-1,3,4-thiadiazol-2-yl)-4-(2-methoxy-phenyl)nicotinamide]
25 | ≤ 200 | COc1cccc(F)c1-c1cc(C#N)ncc1C(=O)Nc1nnc(OCc2ccc(Cl)cc2)s1 [Example 185, N-(5-((4-chlorobenzyl)oxy)-1,3,4-thiadiazol-2-yl)-6-cyano-4-(2-fluoro-6-methoxyphenyl)nicotinamide]
26 | ≤ 200 | COc1cc(C#N)ccc1-c1cnccc1C(=O)Nc1nnc(OCc2ccc(Cl)cc2)s1 [Example 127, N-(5-((4-chlorobenzyl)oxy)-1,3,4-thiadiazol-2-yl)-3-(4-cyano-2-methoxyphenyl)isonicotinamide]
27 | ≤ 200 | COc1ccccc1-c1cc(C)ncc1C(=O)Nc1nnc(OCc2ccc(Cl)cc2)s1 [Example 138, N-[5-[(4-chlorophenyl)methoxy]-1,3,4-thiadiazol-2-yl]-4-(2-methoxyphenyl)-6-methylpyridine-3-carboxamide]
28 | 200 to 500 | N#Cc1ccc(C(=O)Nc2nnc(OCc3ccc(Cl)cn3)s2)c(N2CCOCC2)n1 [Example 32]
29 | 200 to 500 | O=C(Nc1nnc(OCc2ccc(Cl)cc2)s1)c1cccnc1-c1ccccc1Cl [Example 150, N-(5-((4-chlorobenzyl)oxy)-1,3,4-thiadiazol-2-yl)-2-(2-chlorophenyl)nicotinamide]
30 | 1000 to 10000 | O=C(Nc1nnc(OCc2ccc(Cl)cn2)s1)c1cccnc1N1CCS(=O)(=O)CC1 [Example 37, N-(5-((5-chloropyridin-2-yl)methoxy)-1,3,4-thiadiazol-2-yl)-2-(1,1-dioxidothiomorpholino)nicotinamide]
31 | ≤ 200 | O=C(Nc1nnc(OCc2ccc(Cl)cc2)s1)c1ccncc1[C@@]12CCOC[C@@H]1C2 (mixture of isomers) [Example 175, 3-((1R,6S)-3-oxabicyclo[4.1.0]heptan-6-yl)-N-(5-((4-chlorobenzyl)oxy)-1,3,4-thiadiazol-2-yl)isonicotinamide and 3-((1S,6R)-3-oxabicyclo[4.1.0]heptan-6-yl)-N-(5-((4-chlorobenzyl)oxy)-1,3,4-thiadiazol-2-yl)isonicotinamide]
32 | 500 to 1000 | O=C(Nc1nnc(OCc2ccc(Cl)cc2)s1)c1cccnc1C1CCOCC1 [Example 54, N-[5-[(4-chlorophenyl)methoxy]-1,3,4-thiadiazol-2-yl]-2-(oxan-4-yl)pyridine-3-carboxamide]
